Laboratory results: PMC12320299 (Chemical Science, 2025)

Legend:
[1] = tested on: SW480; set-up: method as in earlier work; details: 96 h incubation; ref 48 (ESI Ref. 1); cited from earlier work
[2] = tested on: CH1/PA-1; set-up: method as in Ref. 1 (ESI); details: 96 h incubation; ref Ref. 1 (ESI); cited from earlier work
[3] = tested on: TP53; assay: Immunofluorescence staining of TP53; assay type: cell-based, human; details: SW480, 24 h; 1a 1 μM; etoposide 100 nM
Procedure: Cell Signaling Technology (Danvers, MA, USA), respectively. Horseradish-peroxidase-linked secondary antibodies, anti-mouse IgG (Fc specific) antibody (#7076S) and anti-rabbit IgG antibody (#7074S) were purchased from Cell Signaling Technology (Danvers, MA, USA). Anti-ß-actin (AC-15) (A5441, 1:2000) was obtained from Sigma-Aldrich (St. Louis, MO, USA).
SW480 and CT26 cells were grown at a density of 6.7x10^4 cells/mL on 8-well glass coverslips (80841, ibidi GmbH, Gräfelfing, Germany) in 300 µL complete media. The next day, cells were treated with respective compounds for 24 h. Cells were fixed with 4%(v/v) paraformaldehyde for 15 min at RT, followed by washing, blocking and permeabilization with 5%(w/v) BSA and […]
(1 : 500) were diluted in 1% BSA-0.3% Triton-X-100 in PBS and incubated overnight at 4 °C.
One well was incubated without primary antibody as background control. Cells were washed and stained with secondary goat anti-mouse AlexaFlour-488 (1 : 500 dilution, A-11029, Thermo Fisher Scientific) or goat anti-rabbit AlexaFlour-488 (1 : 500 dilution, A-11034, Thermo Fisher Scientific) antibodies for 1 h at RT. Following, cells were stained with 0.2% Wheat Germ Agglutinin (WGA)-Rhodamine (RL-1022, Vector Laboratories, Inc.) and 0.1% DAPI (62248, Thermo Fisher Scientific) for staining of plasma membrane and nuclei, respectively, according to manufacturer’s recommendations. […]

[4] = tested on: SW480 cancer cells; assay: Cell cycle analysis by flow cytometry (propidium iodide); assay type: cell-based, human; details: 24 h; 1a 12.5 to 50 nM; gemcitabine 10 nM

**Q.** For `CCC1=C(O)C(=O)c2ccccc2C1=O` [a], which IC50 [1] is on record?
**A.** Its IC50 is 100 ± 10 µM.

**Q.** And the IC50 [2]?
**A.** Its IC50 is 173 ± 10 µM.

**Q.** What does the source list for `O=C1C(O)=C(CN2CCOCC2)C(=O)c2ccccc21` [b, 3-morpholine naphthoquinone]?
**A.** IC50 [1]: 160 ± 30 µM; IC50 [2]: > 200 µM

**Q.** For `N.N.[Cl][Pt][Cl]` [cisplatin, reference compound], which IC50 [1] is on record?
**A.** The IC50 was 2.3 ± 0.2 µM.

**Q.** And the IC50 [2]?
**A.** Its IC50 is 0.073 ± 0.001 µM.

**Q.** Which TP53 immunofluorescence signal [3] does the source give for `COc1cc([C@@H]2c3cc4c(cc3[C@@H](O[C@@H]3O[C@@H]5CO[C@@H](C)O[C@H]5[C@H](O)[C@H]3O)[C@H]3COC(=O)[C@H]23)OCO4)cc(OC)c1O` [etoposide, reference compound] here?
**A.** The TP53 immunofluorescence signal was “enhanced nuclear accumulation of TP53”.

**Q.** Which cell cycle distribution [4] does the source give for `Nc1ccn([C@@H]2O[C@H](CO)[C@@H](O)C2(F)F)c(=O)n1` [gemcitabine, reference compound] here?
**A.** The cell cycle distribution was “G0/G1 arrest”.
